ChEMBL document CHEMBL3046329, “Sensitivity to silthiofam, tebuconazole and difenoconazole of Gaeumannomyces graminis var. tritici isolates from China” (Pest Manag Sci, 2012)
In brackets after ≈: the same amount, converted by molar mass.

Tests used:
Format in all cases: functional, organism-based
Gaeumannomyces tritici [1] = assay: Antifungal activity against sithiofam-sensitive Gaeumannomyces graminis var. tritici isolate AH15 expressing C2 genetic cluster assessed as reduction in fungal colony diameter after 4 days; conditions: isolate AH15, 96 h
Gaeumannomyces tritici [2] = assay: Antifungal activity against sithiofam-sensitive Gaeumannomyces graminis var. tritici isolate HN23 expressing C2 genetic cluster assessed as reduction in fungal colony diameter after 4 days; conditions: isolate HN23, 96 h
Gaeumannomyces tritici [3] = assay: Antifungal activity against sithiofam-sensitive Gaeumannomyces graminis var. tritici isolate HN19 expressing C2 genetic cluster assessed as reduction in fungal colony diameter after 4 days; conditions: isolate HN19, 96 h
Gaeumannomyces tritici [4] = assay: Antifungal activity against sithiofam-sensitive Gaeumannomyces graminis var. tritici isolate SD05 expressing C2 genetic cluster assessed as reduction in fungal colony diameter after 4 days; conditions: isolate SD05, 96 h
Gaeumannomyces tritici [5] = assay: Antifungal activity against sithiofam-sensitive Gaeumannomyces graminis var. tritici isolate AH11 expressing C2 genetic cluster assessed as reduction in fungal colony diameter after 4 days; conditions: isolate AH11, 96 h
Gaeumannomyces tritici [6] = assay: Antifungal activity against sithiofam-resistant Gaeumannomyces graminis var. tritici isolate HN03 expressing C1 genetic cluster assessed as reduction in fungal colony diameter after 4 days; conditions: isolate HN03, 96 h
Gaeumannomyces tritici [7] = assay: Antifungal activity against sithiofam-resistant Gaeumannomyces graminis var. tritici isolate HN07 expressing C1 genetic cluster assessed as reduction in fungal colony diameter after 4 days; conditions: isolate HN07, 96 h
Gaeumannomyces tritici [8] = assay: Antifungal activity against sithiofam-sensitive Gaeumannomyces graminis var. tritici isolate SD06 expressing C2 genetic cluster assessed as reduction in fungal colony diameter after 4 days; conditions: isolate SD06, 96 h
Gaeumannomyces tritici [9] = assay: Antifungal activity against sithiofam-sensitive Gaeumannomyces graminis var. tritici isolate AH03 expressing C2 genetic cluster assessed as reduction in fungal colony diameter after 4 days; conditions: isolate AH03, 96 h
Gaeumannomyces tritici [10] = assay: Antifungal activity against sithiofam-sensitive Gaeumannomyces graminis var. tritici isolate HN31 expressing C3 genetic cluster assessed as reduction in fungal colony diameter after 4 days; conditions: isolate HN31, 96 h
Gaeumannomyces tritici [11] = assay: Antifungal activity against sithiofam-sensitive Gaeumannomyces graminis var. tritici isolate HN22 expressing C2 genetic cluster assessed as reduction in fungal colony diameter after 4 days; conditions: isolate HN22, 96 h
Gaeumannomyces tritici [12] = assay: Antifungal activity against sithiofam-sensitive Gaeumannomyces graminis var. tritici isolate AH05 expressing C2 genetic cluster assessed as reduction in fungal colony diameter after 4 days; conditions: isolate AH05, 96 h
Gaeumannomyces tritici [13] = assay: Antifungal activity against sithiofam-resistant Gaeumannomyces graminis var. tritici isolate HN13 expressing C1 genetic cluster assessed as reduction in fungal colony diameter after 4 days; conditions: isolate HN13, 96 h
Gaeumannomyces tritici [14] = assay: Antifungal activity against sithiofam-sensitive Gaeumannomyces graminis var. tritici isolate AH16 expressing C2 genetic cluster assessed as reduction in fungal colony diameter after 4 days; conditions: isolate AH16, 96 h
Gaeumannomyces tritici [15] = assay: Antifungal activity against sithiofam-sensitive Gaeumannomyces graminis var. tritici isolate JS01 expressing C1 genetic cluster assessed as reduction in fungal colony diameter after 4 days; conditions: isolate JS01, 96 h
Gaeumannomyces tritici [16] = assay: Antifungal activity against sithiofam-resistant Gaeumannomyces graminis var. tritici isolate HN04 expressing C1 genetic cluster assessed as reduction in fungal colony diameter after 4 days; conditions: isolate HN04, 96 h
Gaeumannomyces tritici [17] = assay: Antifungal activity against sithiofam-sensitive Gaeumannomyces graminis var. tritici isolate HN29 expressing C2 genetic cluster assessed as reduction in fungal colony diameter after 4 days; conditions: isolate HN29, 96 h
Gaeumannomyces tritici [18] = assay: Antifungal activity against sithiofam-resistant Gaeumannomyces graminis var. tritici isolate HN12 expressing C1 genetic cluster assessed as reduction in fungal colony diameter after 4 days; conditions: isolate HN12, HN12, 96 h
Gaeumannomyces tritici [19] = assay: Antifungal activity against sithiofam-sensitive Gaeumannomyces graminis var. tritici isolate HN25 expressing C2 genetic cluster assessed as reduction in fungal colony diameter after 4 days; conditions: isolate HN25, 96 h
Gaeumannomyces tritici [20] = assay: Antifungal activity against sithiofam-sensitive Gaeumannomyces graminis var. tritici isolate HN26 expressing C2 genetic cluster assessed as reduction in fungal colony diameter after 4 days; conditions: isolate HN26, 96 h
Gaeumannomyces tritici [21] = assay: Antifungal activity against sithiofam-resistant Gaeumannomyces graminis var. tritici isolate HN16 expressing C1 genetic cluster assessed as reduction in fungal colony diameter after 4 days; conditions: isolate HN16, 96 h
Gaeumannomyces tritici [22] = assay: Antifungal activity against sithiofam-resistant Gaeumannomyces graminis var. tritici isolate JS04 expressing C1 genetic cluster assessed as reduction in fungal colony diameter after 4 days; conditions: isolate JS04, 96 h
Gaeumannomyces tritici [23] = assay: Antifungal activity against sithiofam-sensitive Gaeumannomyces graminis var. tritici isolate SD01 expressing C2 genetic cluster assessed as reduction in fungal colony diameter after 4 days; conditions: isolate SD01, 96 h
Gaeumannomyces tritici [24] = assay: Antifungal activity against sithiofam-sensitive Gaeumannomyces graminis var. tritici isolate JS03 expressing C1 genetic cluster assessed as reduction in fungal colony diameter after 4 days; conditions: isolate JS03, 96 h
Gaeumannomyces tritici [25] = assay: Antifungal activity against sithiofam-sensitive Gaeumannomyces graminis var. tritici isolate HN28 expressing C2 genetic cluster assessed as reduction in fungal colony diameter after 4 days; conditions: isolate HN28, 96 h
Gaeumannomyces tritici [26] = assay: Antifungal activity against sithiofam-resistant Gaeumannomyces graminis var. tritici isolate AH06 expressing C1 genetic cluster assessed as reduction in fungal colony diameter after 4 days; conditions: isolate AH06, 96 h
Gaeumannomyces tritici [27] = assay: Antifungal activity against sithiofam-resistant Gaeumannomyces graminis var. tritici isolate HN27 expressing […] genetic cluster assessed as reduction in fungal colony diameter after 4 days; conditions: isolate HN27, 96 h
Gaeumannomyces tritici [28] = assay: Antifungal activity against sithiofam-sensitive Gaeumannomyces graminis var. tritici isolate AH08 expressing C2 genetic cluster assessed as reduction in fungal colony diameter after 4 days; conditions: isolate AH08, 96 h
Gaeumannomyces tritici [29] = assay: Antifungal activity against sithiofam-sensitive Gaeumannomyces graminis var. tritici isolate JS08 expressing C2 genetic cluster assessed as reduction in fungal colony diameter after 4 days; conditions: isolate JS08, 96 h

Compound: CC1COC(Cn2cncn2)(c2ccc(Oc3ccc(Cl)cc3)cc2Cl)O1 (centres undefined) [DIFENOCONAZOLE]
- EC50 (Gaeumannomyces tritici [1]): 0.169 mg/L (≈ 0.415 µM)
- EC50 (Gaeumannomyces tritici [2]): 0.331 mg/L (≈ 0.816 µM)
- EC50 (Gaeumannomyces tritici [3]): 0.326 mg/L (≈ 0.803 µM)
- EC50 (Gaeumannomyces tritici [4]): 0.694 mg/L (≈ 1.71 µM)
- EC50 (Gaeumannomyces tritici [5]): 0.129 mg/L (≈ 0.317 µM)
- EC50 (Gaeumannomyces tritici [6]): 0.336 mg/L (≈ 0.827 µM)
- EC50 (Gaeumannomyces tritici [7]): 0.481 mg/L (≈ 1.18 µM)
- EC50 (Gaeumannomyces tritici [8]): 0.18 mg/L (≈ 0.443 µM)
- EC50 (Gaeumannomyces tritici [9]): 0.401 mg/L (≈ 0.988 µM)
- EC50 (Gaeumannomyces tritici [10]): 0.283 mg/L (≈ 0.697 µM)
- EC50 (Gaeumannomyces tritici [11]): 0.0553 mg/L (≈ 0.136 µM)
- EC50 (Gaeumannomyces tritici [12]): 0.0683 mg/L (≈ 0.168 µM)
- EC50 (Gaeumannomyces tritici [13]): 0.223 mg/L (≈ 0.548 µM)
- EC50 (Gaeumannomyces tritici [14]): 0.126 mg/L (≈ 0.309 µM)
- EC50 (Gaeumannomyces tritici [15]): 0.142 mg/L (≈ 0.349 µM)
- EC50 (Gaeumannomyces tritici [16]): 0.255 mg/L (≈ 0.626 µM)
- EC50 (Gaeumannomyces tritici [17]): 0.107 mg/L (≈ 0.265 µM)
- EC50 (Gaeumannomyces tritici [18]): 0.588 mg/L (≈ 1.45 µM)
- EC50 (Gaeumannomyces tritici [19]): 0.154 mg/L (≈ 0.38 µM)
- EC50 (Gaeumannomyces tritici [20]): 0.366 mg/L (≈ 0.902 µM)
- EC50 (Gaeumannomyces tritici [21]): 1.01 mg/L (≈ 2.49 µM)
- EC50 (Gaeumannomyces tritici [22]): 0.198 mg/L (≈ 0.486 µM)
- EC50 (Gaeumannomyces tritici [23]): 0.782 mg/L (≈ 1.93 µM)
- EC50 (Gaeumannomyces tritici [24]): 0.121 mg/L (≈ 0.299 µM)
- EC50 (Gaeumannomyces tritici [25]): 0.0604 mg/L (≈ 0.149 µM)
- EC50 (Gaeumannomyces tritici [26]): 0.24 mg/L (≈ 0.59 µM)
- EC50 (Gaeumannomyces tritici [27]): 0.226 mg/L (≈ 0.557 µM)
- EC50 (Gaeumannomyces tritici [28]): 0.019 mg/L (≈ 0.0468 µM)
- EC50 (Gaeumannomyces tritici [29]): 0.163 mg/L (≈ 0.4 µM)
